According to paper PMC12340957, “Interactions between Lipopolysaccharide and Peptide Bacteriocin BacSp222 Influence Their Biological Activities” (ACS Infectious Diseases, 2025):
Ends that are not written are not given here. * marks the point of attachment. For = O=C*

Assays:
TLR4 receptor = target: T1, TLR4 receptor (Homo sapiens, UniProt O00206+Q9Y6Y9); test: HEK-Blue hTLR4 stimulation, SEAP reporter; assay type: cell-based; conditions: HEK-Blue hTLR4, BacSp222 0.016 to 2 μM without LPS, 17 h
T1 construct: host or cells: HEK-Blue hTLR4 (HEK293 reporter cells)
T1 sequence (O00206 24-839): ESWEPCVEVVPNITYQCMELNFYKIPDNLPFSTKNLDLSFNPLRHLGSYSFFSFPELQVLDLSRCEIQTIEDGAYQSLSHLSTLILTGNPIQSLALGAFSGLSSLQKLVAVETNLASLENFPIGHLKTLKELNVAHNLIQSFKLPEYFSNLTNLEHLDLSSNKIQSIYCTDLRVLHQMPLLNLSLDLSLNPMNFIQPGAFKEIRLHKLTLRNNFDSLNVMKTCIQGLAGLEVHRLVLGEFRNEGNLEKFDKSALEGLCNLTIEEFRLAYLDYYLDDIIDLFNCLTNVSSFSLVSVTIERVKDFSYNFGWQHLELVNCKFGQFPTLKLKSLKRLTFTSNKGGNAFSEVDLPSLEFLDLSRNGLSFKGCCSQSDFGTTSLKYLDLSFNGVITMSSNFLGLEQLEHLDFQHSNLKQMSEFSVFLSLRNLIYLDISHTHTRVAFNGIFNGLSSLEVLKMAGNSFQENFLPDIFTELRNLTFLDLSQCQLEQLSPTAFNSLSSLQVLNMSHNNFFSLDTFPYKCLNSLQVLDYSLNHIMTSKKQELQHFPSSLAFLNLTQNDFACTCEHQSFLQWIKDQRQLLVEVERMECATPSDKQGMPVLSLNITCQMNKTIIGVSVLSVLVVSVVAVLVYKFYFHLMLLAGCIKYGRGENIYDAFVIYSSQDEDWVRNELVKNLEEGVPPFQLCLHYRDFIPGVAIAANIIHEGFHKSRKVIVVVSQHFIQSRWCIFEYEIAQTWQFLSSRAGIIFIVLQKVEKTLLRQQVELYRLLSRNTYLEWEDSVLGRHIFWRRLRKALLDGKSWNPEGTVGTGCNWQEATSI
T1 sequence (Q9Y6Y9 17-160 limits assumed): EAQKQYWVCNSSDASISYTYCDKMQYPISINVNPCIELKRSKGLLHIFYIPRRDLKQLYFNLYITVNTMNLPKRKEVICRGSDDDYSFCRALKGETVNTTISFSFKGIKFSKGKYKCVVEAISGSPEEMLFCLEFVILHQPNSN
Experimental: The eukaryotic cells were cultured according to the methods described in previous publications. , The murine monocyte/macrophage RAW 264.7 cell line (ATCC TIB-71) and the murine monocyte/macrophage P388.D1 cell line (ATCC CCL-46) were purchased from the American Type Culture Collection (ATCC, Manassas, VA, USA). Human TLR4/NF-κB/SEAP (HEK-Blue hTLR4) and human TLR2 + TLR6/NF-κB/SEAP (HEK-Blue hTLR2/TLR6) reporter HEK293 cells were obtained from InvivoGen (San Diego, CA, USA). The passages of all TLR reporter HEK293 cells ranged from 7 to 15. All cells used in experiments were cultured under the following conditions: 5% CO2, 37 °C, and >95% humidity. RAW 264.7 and P388.D1 cells were cultured in Dulbecco’s modified Eagle’s medium (DMEM) containing 4.5 g/L glucose (GIBCO, Paisley, UK) and 5% (v/v) fetal bovine serum (FBS, GIBCO, Paisley, UK), whereas HEK-Blue hTLR4 and HEK-Blue hTLR2/TLR6 were cultured in DMEM containing 4.5 g/L glucose, 10% (v/v) FBS, 50 units/mL penicillin, and 50 μg/mL streptomycin (both from GIBCO, Paisley, UK). […]
Measurement of the activity of SEAP, secreted by the HEK-Blue cells to the media, was conducted as described previously. […] Then, the plate was incubated at 37 °C for 1 h in the dark, and the absorbance was measured at 620 nm using a Synergy H1 Hybrid microplate reader controlled by Gene5 version 2.00.18 software (BIOTEK Instruments, Winooski, VT, USA). […]

[1] = tested on: ATCC 25923, ATCC 29663, ATCC 6633, and ATCC 4698; test: Residual bactericidal activity, radial diffusion assay; assay type: cell-based; conditions: 10 or 50 μM BacSp222, 16 h, n = 3
Experimental: The residual bactericidal activity of BacSp222 after preincubation with different LPS serotypes and at different mass proportions was determined using radial diffusion assay toward the following bacteria: ATCC 25923, ATCC 29663, ATCC 6633, and ATCC 4698. BacSp222 at final concentrations of 10 μM (for and ) or 50 μM (for and ) was preincubated in PBS without Ca^2+ and Mg^2+ for 15 min at 37 °C with LPS O55:B5 (IEC) or O111:B4 (PE and IEC) at proportions equivalent to 1:1 or 1:17 mass ratios (BacSp222:LPS). After preincubation, 5 μL aliquots of the solutions were dispensed as drops at different sites of soft Mueller–Hinton Broth II (MHBII, Merck, Darmstadt, Germany) plates containing 0.75% (w/v) agarose and a suspension of the tested bacteria strains. After liquid preparations were entered into the solid medium, the plates were incubated at 37 °C for 16 h, and the antibacterial activity of the studied samples was determined as the diameter of the bacterial growth inhibition zone. In each experiment, the appropriate controls were applied on the plate, and they comprised adequate amounts of BacSp222 and LPS not incubated together.

FPR2 = tested on: FPR2; design: method as in number not given; conditions: ref number not given; cited from earlier work
Gram-positive bacteria = conditions: pore formation; ref number not given; cited from earlier work
Description: (§1) A good example of such a multifunctional and immunomodulatory bacteriocin is the peptide BacSp222, produced by an opportunistic canine pathogen, strain 222. BacSp222 is a 50 amino acid long linear peptide encoded on a plasmid and is produced without a leader sequence, retaining a formylated N-terminal methionine. Its amino acid sequence seems to be unique, but the general physicochemical properties of BacSp222 resemble features of a group of several previously described bacteriocins of, predominantly, different staphylococci: lacticins Q and Z, aureocins A53 and AurK411, capidermicin, and epid ...

mouse immune cells = conditions: in the presence of IFN-gamma; ref number not given; cited from earlier work
Description: as §1

[2] = tested on: pro-inflammatory cytokines; conditions: TNF, MCP-1, IL-1-alpha, IL-8; via TLR2/TLR6, MyD88, NF-κB; ref our recent studies; cited from earlier work
Description: as §1

Gram-negative = conditions: ref number not given; cited from earlier work
Description: The present study sheds more light on the multiple biological activities of BacSp222 and further makes the image of this peptide even more complex.

For-MAGLLRFLLSKGRALYNWAKSHVGKVWEWLKSGATYEQIKEWIENALGWR [BacSp222]
stimulation of TLR4 by BacSp222 alone (TLR4 receptor): none of the tested BacSp222 concentrations stimulated the TLR4 receptors | effect of LPS on bactericidal potential of BacSp222 ([1]; 17-fold mass excess of LPS (1:17), all strains but one exception): completely inhibited the killing potential of BacSp222 | effect of LPS on bactericidal potential of BacSp222 ([1]; BacSp222:LPS 1:1 mass ratio, all LPS preparations, all four strains, preincubated 15 min 37 °C, peptide referred to as "bacteriocin"/"the peptide"): only marginally reduces the bactericidal potential of the peptide | activation of FPR2 (FPR2): cannot activate | bactericidal activity, Gram-positive bacteria (Gram-positive bacteria): kills a wide range of Gram-positive bacteria | induction of NO secretion (mouse immune cells): capable of stimulating mouse immune cells to express an inducible nitric oxide synthase and, consequently, to secrete nitric oxide (NO) | induction of pro-inflammatory cytokines [2]: induces the synthesis of many pro-inflammatory cytokines | activity against Gram-negative bacteria (Gram-negative): inactive against Gram-negative ones
